Measured values published in patent publication EP4600367A1, “ENZYMATIC CLEAVAGE OF N-ALKYL COMPOUNDS AFTER CHEMOLYSIS OF POLYURETHANES” (Covestro Deutschland AG, priority 2024, dated 2025).

Legend:
MaoN5 = target: T1, MaoN5 (Aspergillus niger, UniProt P46882, D385S/I246M/N336S/T384N); experiment: Enzymatic N-dealkylation assay MAOs/CAOs, HPLC product release; format: biochemical; details: for enzymatischer Abbau von Modell-N-Alkylverbindungen: MaoN5: 10 mM substrate, phosphate buffer pH 7,5, 37 °C, at least 48 h; for Aktivität / Freisetzung des Zielprodukts: MaoN5
T1 construct: His-tag (N); made in house; host or cells: Escherichia coli BL21(DE3) pET21a
T1 sequence (P46882 whole entry I246M/N336S/T384N/D385S): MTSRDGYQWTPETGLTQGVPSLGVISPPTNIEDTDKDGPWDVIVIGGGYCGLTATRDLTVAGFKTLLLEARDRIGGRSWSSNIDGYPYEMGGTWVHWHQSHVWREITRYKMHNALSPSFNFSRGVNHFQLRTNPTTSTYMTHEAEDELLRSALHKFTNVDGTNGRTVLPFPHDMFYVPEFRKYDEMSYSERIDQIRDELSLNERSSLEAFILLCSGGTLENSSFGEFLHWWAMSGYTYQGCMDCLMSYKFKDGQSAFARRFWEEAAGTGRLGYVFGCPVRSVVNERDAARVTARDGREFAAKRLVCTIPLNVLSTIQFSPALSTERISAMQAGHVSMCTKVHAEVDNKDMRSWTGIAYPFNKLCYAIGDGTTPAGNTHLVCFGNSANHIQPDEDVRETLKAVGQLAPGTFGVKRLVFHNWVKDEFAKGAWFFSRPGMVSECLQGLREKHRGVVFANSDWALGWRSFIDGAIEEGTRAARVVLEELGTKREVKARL
Experimental: (§1) Die Expression der in Tabelle 1 gezeigten MAOs und CAOs erfolgte im Stamm E. coli BL21(DE3). Der Zellaufschluss erfolgte durch Ultraschallbehandlung und die Enzymreinigung über einen N-terminalen His-tag und das IMAC-System (Nickel-NTA) nach Angaben des Herstellers (Fisher Scientific GmbH) mit anschließender Umpufferung in einen Lagerpuffer (25 mM Tris/HCl pH 7.8, 1 mM dithiothreitol (DTT), 1 mM PMSF, 300 mM NaCl) über PD-10-Säulen nach Angaben des Herstellers (cytiva). Die erfolgreiche Expression und Aufreinigung wurde über ein SDS-PAGE kontrolliert. Tabelle 1: Untersuchte Enzyme im Rahmen der enzymatischen N-Dealkylierung.
(§2) Für MAOs/CAOs erfolgte die Reaktion im 200 µL Maßstab bei 37 °C für mindestens 48 h und 200 rpm. Dazu wurden 100 µL der oben beschriebenen Enzympräparate in Phosphatpuffer (bevorzugt zwischen 50 bis 200 mM, pH 7,5) mit 10 mM eines der sechs in Tabelle 2 gelisteten Substrate versetzt. Als Co-Solvenz für das Substrat wurde Dimethylsulfoxid eingesetzt (maximal 5 % (w/w) der finalen Umsetzungsreaktion). Um eine ausreichende Sauerstoffversorgung über den Kopfraum des Reaktionsansatzes zu gewährleisten, wurden Reaktionsgefäße oder Mikrotiterplatten in eckiger Ausführungsform und 10-fachem Gesamtvolumen bevorzugt.
(§3) Als Negativkontrollen wurden für alle Substrate und Bedingungen Assays ohne Enzymlösung durchgeführt. Alle Assays erfolgten mindestens in Triplikaten.
(§4) Zum Abstoppen der enzymatischen Reaktion und Extraktion erfolgte die Verdünnung des Reaktionsansatzes in gleichen Teilen Acetonitril. Die Proben wurden filtriert und die Produktfreisetzung per HPLC analysiert (ZORBAX Eclipse C18 Säule (Partikelgröße von […], 4,6 × 75 mm (Agilent Technologies, Santa Clara, USA), 40 °C, Laufmittel A: Acetonitril mit 5 % Reinstwasser, Laufmittel B: 10 mM Natriumphosphat-Puffer pH 7,0 mit 5 % ACN, Fluss: 1 mL/min). Das Profil der HPLC-Methode ist in Tabelle 3 gezeigt. Tabelle 4 zeigt die Elutionszeiten der Komponenten mit dieser Messmethode. Tabelle 3: Profil der HPLC-Methode.

ChaO YT02 = experiment: as above; format: biochemical, Acinetobacter sp. YT-02; details: for enzymatischer Abbau von Modell-N-Alkylverbindungen: ChaO YT02: 10 mM substrate, phosphate buffer pH 7,5, 37 °C, at least 48 h
Experimental: as §1, §2, §3, §4

UPO #13M1 = experiment: Enzymatic N-dealkylation assay UPOs with H2O2, HPLC; format: biochemical; details: for enzymatischer Abbau von Modell-N-Alkylverbindungen: UPO #13M1: 4 mM substrate, Tricine buffer 100 mM, 30 °C, at least 4 h, H2O2 added every 30 min
Experimental: (§5) Die vier Enzyme UPO #13, UPO #13M1, UPO #13M3 und UPO #13M5 wurden von Aminoverse B.V. bereitgestellt. Zusätzlich wurde das Wildtyp AaeUPO aus der Basidiomycete Agrocybe aegerita (Ullrich, R., et al. (2004). "Novel haloperoxidase from the agaric basidiomycete Agrocybe aegerita oxidizes aryl alcohols and aldehydes." Appl Environ Microbiol 70(8): 4575-4581) von Aminoverse B.V. erworben.
(§6) Für UPOs erfolgte die Reaktion im 300 µL Maßstab in Tricine Puffer (100 mM) bei 30 °C für mindestens 4 h und 200 rpm. Dazu wurden die von Aminoverse B.V. bereitgestellten Enzympräparate in dH2O gelöst (ca. 0,575 mg/mL) und 30 µL der Enzymlösung in den Assay eingesetzt, welcher mit 4 mM eines der sechs in Tabelle 2 gelisteten Substrate versetzt war. Der Assay wurde mit Zugabe des Co-Substrats H2O2 (1,5 µL einer 200 mM H2O2-Lösung) gestartet, welches alle 30 min wiederholt zugegeben wurde (final 12 µL H2O2).
as §3, §4

UPO #13M3 = experiment: as above; format: biochemical; details: for enzymatischer Abbau von Modell-N-Alkylverbindungen: UPO #13M3: 4 mM substrate, Tricine buffer 100 mM, 30 °C, at least 4 h, H2O2 added every 30 min
Experimental: as §5, §6, §3, §4

UPO #13M5 = experiment: as above; format: biochemical; details: for enzymatischer Abbau von Modell-N-Alkylverbindungen: UPO #13M5: 4 mM substrate, Tricine buffer 100 mM, 30 °C, at least 4 h, H2O2 added every 30 min
Experimental: as §5, §6, §3, §4

UPO #13 = experiment: as above; format: biochemical; details: for enzymatischer Abbau von Modell-N-Alkylverbindungen: UPO #13: 4 mM substrate, Tricine buffer 100 mM, 30 °C, at least 4 h, H2O2 added every 30 min
Experimental: as §5, §6, §3, §4

AaeUPO = target: T2, AaeUPO (Cyclocybe aegerita, UniProt B9W4V6); experiment: as above; format: biochemical, Agrocybe aegerita; details: for enzymatischer Abbau von Modell-N-Alkylverbindungen: AaeUPO: 4 mM substrate, Tricine buffer 100 mM, 30 °C, at least 4 h, H2O2 added every 30 min
T2 construct: purchased Aminoverse B.V
T2 sequence (B9W4V6 44-371): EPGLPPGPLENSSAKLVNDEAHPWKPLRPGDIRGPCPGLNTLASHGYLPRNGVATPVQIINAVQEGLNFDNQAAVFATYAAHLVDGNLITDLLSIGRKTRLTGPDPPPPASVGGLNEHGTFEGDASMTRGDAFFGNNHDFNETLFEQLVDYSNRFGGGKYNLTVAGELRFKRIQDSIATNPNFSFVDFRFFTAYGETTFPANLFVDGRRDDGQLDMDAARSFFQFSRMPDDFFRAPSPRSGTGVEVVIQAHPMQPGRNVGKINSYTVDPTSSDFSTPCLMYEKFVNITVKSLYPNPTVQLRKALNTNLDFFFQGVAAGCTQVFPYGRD
Experimental: Die vier Enzyme UPO #13, UPO #13M1, UPO #13M3 und UPO #13M5 wurden von Aminoverse B.V. bereitgestellt.
Für UPOs erfolgte die Reaktion im 300 µL Maßstab in Tricine Puffer (100 mM) bei 30 °C für mindestens 4 h und 200 rpm. […] Der Assay wurde mit Zugabe des Co-Substrats H2O2 (1,5 µL einer 200 mM H2O2-Lösung) gestartet, welches alle 30 min wiederholt zugegeben wurde (final 12 µL H2O2).
as §3, §4

MAOs/CAOs = experiment: Enzymatic N-dealkylation assay, statement for the MAOs/CAOs as a group; format: biochemical
Experimental: as §1, §2, §3, §4

MaoN = target: T3, MaoN (Aspergillus niger, UniProt P46882); experiment: Enzymatic N-dealkylation assay MAOs/CAOs, HPLC product release; format: biochemical; details: 10 mM substrate, phosphate buffer pH 7,5, 37 °C, at least 48 h
T3 construct: His-tag (N); made in house; host or cells: Escherichia coli BL21(DE3) pET21a
T3 sequence (P46882 whole entry): as the sequence (P46882 whole entry I246M/N336S/T384N/D385S) above, with M246I, S336N, N384T, S385D counted along it
Experimental: as §1, §2, §3, §4

ChaoA L225A = experiment: as above; format: biochemical, Brevibacterium oxydans strain IH-35A; details: for enzymatischer Abbau von Modell-N-Alkylverbindungen: ChaoA L225A: 10 mM substrate, phosphate buffer pH 7,5, 37 °C, at least 48 h; for Aktivität / Freisetzung des Zielprodukts: ChaoA L225A
Experimental: as §1, §2, §3, §4

[1] = UPO #13M1, mol% relative to substrate used
[2] = UPO #13M3, mol% relative to substrate used
[3] = UPO #13M5, mol% relative to substrate used
[4] = UPO #13, mol% relative to substrate used
[5] = AaeUPO, mol% relative to substrate used

SMILES: CCNc1ccccc1 [N-Ethylanilin]
- enzymatischer Abbau von Modell-N-Alkylverbindungen: MaoN5 (MaoN5): schwach
- enzymatischer Abbau von Modell-N-Alkylverbindungen: ChaO YT02 (ChaO YT02): schwach
- enzymatischer Abbau von Modell-N-Alkylverbindungen: UPO #13M1 (UPO #13M1): deg
- enzymatischer Abbau von Modell-N-Alkylverbindungen: UPO #13M3 (UPO #13M3): deg
- enzymatischer Abbau von Modell-N-Alkylverbindungen: UPO #13M5 (UPO #13M5): deg
- enzymatischer Abbau von Modell-N-Alkylverbindungen: UPO #13 (UPO #13): deg
- enzymatischer Abbau von Modell-N-Alkylverbindungen: AaeUPO (AaeUPO): deg
- Aktivität (MAOs/CAOs): spezifische Aktivität

SMILES: CCNc1ccc(Cc2ccc(NCC)cc2)cc1 [N,N'-Diethyl-4,4'-MDA]
- enzymatischer Abbau von Modell-N-Alkylverbindungen: MaoN (MaoN): nein
- enzymatischer Abbau von Modell-N-Alkylverbindungen: MaoN5 (MaoN5): schwach
- Aktivität / Freisetzung des Zielprodukts (MaoN5): nur sehr schwache 4,4'-MDA-Freisetzung
- enzymatischer Abbau von Modell-N-Alkylverbindungen: ChaO YT02 (ChaO YT02): nein
- enzymatischer Abbau von Modell-N-Alkylverbindungen: ChaoA L225A (ChaoA L225A): schwach
- Aktivität / Freisetzung des Zielprodukts (ChaoA L225A): nur sehr schwache 4,4'-MDA-Freisetzung
- enzymatischer Abbau von Modell-N-Alkylverbindungen: UPO #13M1 (UPO #13M1): ja/deg^1
- 4,4'-MDA-Freisetzung (UPO #13M1; [1]): 2,5 mol%
- enzymatischer Abbau von Modell-N-Alkylverbindungen: UPO #13M3 (UPO #13M3): ja/deg^1
- 4,4'-MDA-Freisetzung (UPO #13M3; [2]): 2,9 mol%
- enzymatischer Abbau von Modell-N-Alkylverbindungen: UPO #13M5 (UPO #13M5): ja/deg^1
- 4,4'-MDA-Freisetzung (UPO #13M5; [3]): 2,8 mol%
- enzymatischer Abbau von Modell-N-Alkylverbindungen: UPO #13 (UPO #13): ja/deg^1
- 4,4'-MDA-Freisetzung (UPO #13; [4]): 2,6 mol%
- enzymatischer Abbau von Modell-N-Alkylverbindungen: AaeUPO (AaeUPO): nein
- 4,4'-MDA-Freisetzung (AaeUPO; [5]): 0 mol%

SMILES: CNc1ccc(Cc2ccc(NC)cc2)cc1 [N,N'-Dimethyl-4,4'-MDA]
- enzymatischer Abbau von Modell-N-Alkylverbindungen: MaoN (MaoN): nein
- enzymatischer Abbau von Modell-N-Alkylverbindungen: MaoN5 (MaoN5): schwach
- Aktivität / Freisetzung des Zielprodukts (MaoN5): geringerer Aktivität
- enzymatischer Abbau von Modell-N-Alkylverbindungen: ChaO YT02 (ChaO YT02): nein
- enzymatischer Abbau von Modell-N-Alkylverbindungen: ChaoA L225A (ChaoA L225A): schwach
- Aktivität / Freisetzung des Zielprodukts (ChaoA L225A): geringerer Aktivität
- 4,4'-MDA-Freisetzung (UPO #13M1; [1]): 2,5 mol%
- 4,4'-MDA-Freisetzung (UPO #13M3; [2]): 2,8 mol%
- Abbau des eingesetzten Substrates (UPO #13M3; UPO #13M3, substrate no longer detected in HPLC chromatograms): vollständig abgebaut
- 4,4'-MDA-Freisetzung (UPO #13M5; [3]): 2,2 mol%
- Abbau des eingesetzten Substrates (UPO #13M5; UPO #13M5, substrate no longer detected in HPLC chromatograms): vollständig abgebaut
- 4,4'-MDA-Freisetzung (UPO #13; [4]): 2,1 mol%
- Abbau des eingesetzten Substrates (UPO #13; UPO #13, substrate no longer detected in HPLC chromatograms): vollständig abgebaut
- 4,4'-MDA-Freisetzung (AaeUPO; [5]): 0,7 mol%

SMILES: CN(C)c1ccc(Cc2ccc(N(C)C)cc2)cc1 [N,N,N',N'-Tetramethyl-4,4'-MDA, N,N,N',N'-Tetramethyl-4,4'-diaminodiphenylmethan]
- enzymatischer Abbau von Modell-N-Alkylverbindungen: MaoN (MaoN): nein
- enzymatischer Abbau von Modell-N-Alkylverbindungen: MaoN5 (MaoN5): nein
- enzymatischer Abbau von Modell-N-Alkylverbindungen: ChaO YT02 (ChaO YT02): nein
- enzymatischer Abbau von Modell-N-Alkylverbindungen: ChaoA L225A (ChaoA L225A): nein
- 4,4'-MDA-Freisetzung (UPO #13M1; [1]): 1,1 mol%
- N,N'-Dimethyl-4,4'-MDA - Zwischenprodukt der enzymatischen Reaktion - nachgewiesen (UPO #13M1; [1]): 31,8 mol%
- 4,4'-MDA-Freisetzung (UPO #13M3; [2]): 1,4 mol%
- N,N'-Dimethyl-4,4'-MDA - Zwischenprodukt der enzymatischen Reaktion - nachgewiesen (UPO #13M3; [2]): 27,5 mol%
- 4,4'-MDA-Freisetzung (UPO #13M5; [3]): 1,3 mol%
- N,N'-Dimethyl-4,4'-MDA - Zwischenprodukt der enzymatischen Reaktion - nachgewiesen (UPO #13M5; [3]): 27,9 mol%
- 4,4'-MDA-Freisetzung (UPO #13; [4]): 1,1 mol%
- N,N'-Dimethyl-4,4'-MDA - Zwischenprodukt der enzymatischen Reaktion - nachgewiesen (UPO #13; [4]): 25,7 mol%
- enzymatischer Abbau von Modell-N-Alkylverbindungen: AaeUPO (AaeUPO): nein
- 4,4'-MDA-Freisetzung (AaeUPO; [5]): 0,1 mol%
- N,N'-Dimethyl-4,4'-MDA - Zwischenprodukt der enzymatischen Reaktion - nachgewiesen (AaeUPO; [5]): 0 mol%
- Aktivität (MAOs/CAOs): keine reproduzierbare Aktivität

SMILES: c1ccc(CNc2ccccc2)cc1 [N-Benzylanilin]
- enzymatischer Abbau von Modell-N-Alkylverbindungen: MaoN (MaoN): nein
- enzymatischer Abbau von Modell-N-Alkylverbindungen: MaoN5 (MaoN5): nein
- enzymatischer Abbau von Modell-N-Alkylverbindungen: ChaO YT02 (ChaO YT02): schwach
- Aktivität / Freisetzung des Zielprodukts (ChaO YT02; ChaO YT02): spezifische Aktivität
- enzymatischer Abbau von Modell-N-Alkylverbindungen: ChaoA L225A (ChaoA L225A): schwach
- Aktivität / Freisetzung des Zielprodukts (ChaoA L225A): spezifische Aktivität
- enzymatischer Abbau von Modell-N-Alkylverbindungen: UPO #13M1 (UPO #13M1): deg
- enzymatischer Abbau von Modell-N-Alkylverbindungen: UPO #13M3 (UPO #13M3): deg
- enzymatischer Abbau von Modell-N-Alkylverbindungen: UPO #13M5 (UPO #13M5): deg
- enzymatischer Abbau von Modell-N-Alkylverbindungen: UPO #13 (UPO #13): deg
- enzymatischer Abbau von Modell-N-Alkylverbindungen: AaeUPO (AaeUPO): deg

SMILES: CCN(C)c1ccccc1 [N-Ethyl-N-Methylanilin]
- enzymatischer Abbau von Modell-N-Alkylverbindungen: MaoN (MaoN): nein
- enzymatischer Abbau von Modell-N-Alkylverbindungen: MaoN5 (MaoN5): nein
- enzymatischer Abbau von Modell-N-Alkylverbindungen: ChaO YT02 (ChaO YT02): nein
- enzymatischer Abbau von Modell-N-Alkylverbindungen: ChaoA L225A (ChaoA L225A): nein
- Anilin als Zielprodukt (UPO #13M1; UPO #13M1): nachgewiesen
- Anilin als Zielprodukt (UPO #13M3; UPO #13M3): nachgewiesen
- enzymatischer Abbau von Modell-N-Alkylverbindungen: UPO #13M5 (UPO #13M5): nein
- Anilin als Zielprodukt (UPO #13; UPO #13): nachgewiesen
- enzymatischer Abbau von Modell-N-Alkylverbindungen: AaeUPO (AaeUPO): nein
- Aktivität (MAOs/CAOs): keine Aktivität
